In US20240245673A1, “Papain-like protease (PLpro) inhibitors” (Pfizer Inc., priority 2022, published 2024):
Where two headings read alike, the source gives them in different places.

Molecular target: SARS-CoV-2 Papain like protease (PLpro) (Severe acute respiratory syndrome coronavirus 2 (2019-nCoV) (SARS-CoV-2), UniProt P0DTD1)
Assay: Papain Like Protease (PLpro) biochemical assay with profluorogenic substrate Z-RLRGG-AMC
Conditions: SARS-CoV-2 PLpro 6.25 nM, 25 μM Z-RLRGG-AMC substrate, 60 minute reaction

## CNC(=O)c1c[nH]c(-c2cc([C@@H](C)NC(=O)c3cc(CN)ccc3C)c3ccccc3n2)c1 [Example 22, (R)-5-(4-(1-(5-(aminomethyl)-2-methylbenzamido)ethyl)quinolin-2-yl)-N-methyl-1H-pyrrole-3-carboxamide]
read-out: IC50
  IC50: 0.017 µM

## Cc1ccc(N(C)C(=O)[C@H]2CCCCN2)cc1C(=O)N[C@H](C)c1cc(-c2cnn(C)c2)nc2ccccc12 [Example 15, (R)—N-methyl-N-(4-methyl-3-(((R)-1-(2-(1-methyl-1H-pyrazol-4-yl)quinolin-4-yl)ethyl)carbamoyl)phenyl)piperidine-2-carboxamide]
read-out: IC50
  IC50: 0.495 µM

## CC(=O)Nc1cc([C@@H](C)NC(=O)c2ccccc2C)c2ccccc2n1 [Example 40, (R)—N-(1-(2-acetamidoquinolin-4-yl)ethyl)-2-methylbenzamide]
read-out: IC50
  IC50: 3.16 µM

## Cc1ccccc1C(=O)NC(C)c1cc(NCCS(=O)(=O)N(C)C)nc2ccccc12 (stereo not drawn) [Example 148, N-[1-(2-{[2-(dimethylsulfamoyl)ethyl]amino}quinolin-4-yl)ethyl]-2-methylbenzamide]
read-out: IC50
  IC50: 1.77 µM

## Cc1cc(COCc2cscn2)ccc1C(=O)NC1(c2cc(-c3cc(C(=O)N(C)C)n[nH]3)cc3ncccc23)CC1 [Example 351, N,N-dimethyl-5-(5-(1-(2-methyl-4-((thiazol-4-ylmethoxy)methyl)benzamido)cyclopropyl)quinolin-7-yl)-1H-pyrazole-3-carboxamide]
read-out: IC50
  IC50: < 0.001 µM

## CCn1cc(-c2cc(C(C)NC(=O)c3ccccc3C)c3ccccc3n2)c(C)n1 (stereo not drawn) [Example 115, N-{1-[2-(1-ethyl-3-methyl-1H-pyrazol-4-yl)quinolin-4-yl]ethyl}-2-methylbenzamide]
read-out: IC50
  IC50: 1.08 µM

## Cc1cc(COCc2cscn2)ccc1C(=O)NC1(c2cc(-c3cnn(C)c3)cc3nc(C(C)(C)O)ccc23)CC1 [Example 354, N-(1-(2-(2-hydroxypropan-2-yl)-7-(1-methyl-1H-pyrazol-4-yl)quinolin-5-yl)cyclopropyl)-2-methyl-4-((thiazol-4-ylmethoxy)methyl)benzamide]
read-out: IC50
  IC50: < 0.001 µM

## Cc1ccc(NC(=O)[C@H]2CCCCN2)cc1C(=O)NC(C)c1cc(-c2cn[nH]c2)cc2ccccc12 (single isomer, unassigned) [Example 52, (R)—N-(3-(((R*)-1-(3-(1H-pyrazol-4-yl)naphthalen-1-yl)ethyl)carbamoyl)-4-methylphenyl)piperidine-2-carboxamide]
read-out: IC50
  IC50: 0.011 µM

## COC[C@@H](OCc1cscn1)c1ccc(C(=O)NC2(c3cc(-c4cc(C(=O)N(C)C)n[nH]4)nc4ccccc34)CC2)c(C)c1 (single isomer, unassigned) [Example 336]
read-out: IC50
  IC50: < 0.001 µM

## COC(=O)/C=C/C(=O)NNC(=O)CCc1ccccc1C(=O)NC1(c2cc(-c3cnn(C)c3)nc3ccccc23)CC1 [Example 225, methyl (E)-4-(2-(3-(2-((1-(2-(1-methyl-1H-pyrazol-4-yl)quinolin-4-yl)cyclopropyl)carbamoyl)phenyl)propanoyl)hydrazineyl)-4-oxobut-2-enoate]
read-out: IC50
  IC50: 0.006 µM

## CNC(=O)c1cc(-c2cc([C@@H](C)NC(=O)c3cc(CN)ccc3C)c3ccccc3n2)cn1C [Example 257, (R)-4-(4-(1-(5-(aminomethyl)-2-methylbenzamido)ethyl)quinolin-2-yl)-N,1-dimethyl-1H-pyrrole-2-carboxamide]
read-out: IC50
  IC50: 0.022 µM

## Cc1cc(C(=O)NCc2nccn2C)ccc1C(=O)NC1(c2cc(-c3cnn(C)c3)nc3ccccc23)CC1 [Example 253]
read-out: IC50
  IC50: 0.006 µM

## Cc1cc(CC(=O)Nc2ncsc2C)ccc1C(=O)N[C@H](C)c1cc(-c2cnn(C)c2)nc2ccccc12 [Example 298, (R)-2-methyl-N-(1-(2-(1-methyl-1H-pyrazol-4-yl)quinolin-4-yl)ethyl)-4-(2-((5-methylthiazol-4-yl)amino)-2-oxoethyl)benzamide]
read-out: IC50
  IC50: < 0.001 µM

## Cc1ccc(CN)cc1C(=O)N[C@H](C)c1cc(-c2cn[nH]c2)nc2ccccc12 [Example 18, (R)-N-(1-(2-(1H-pyrazol-4-yl)quinolin-4-yl)ethyl)-5-(aminomethyl)-2-methylbenzamide]
read-out: IC50
  IC50: 0.027 µM

## Cc1cnc(N2CC3CCC(C2)N3C)cc1C(=O)NC1(c2cc(-c3cnn(C)c3)nc3ccccc23)CC1 [Example 287, 5-methyl-N-(1-(2-(1-methyl-1H-pyrazol-4-yl)quinolin-4-yl)cyclopropyl)-2-(8-methyl-3,8-diazabicyclo[3.2.1]octan-3-yl)isonicotinamide]
IC50 (μM)
  IC50: 0.002 µM

## Cc1ccccc1C(=O)N[C@H](C)c1cc(-c2cnn(C)c2)nc2ccccc12 [Example 49, (R)-2-methyl-N-(1-(2-(1-methyl-1H-pyrazol-4-yl)quinolin-4-yl)ethyl)benzamide]
read-out: IC50
  IC50: 0.151 µM

## Cc1cc(COCc2ccccn2)ccc1C(=O)NC1(c2cc(-c3cnn(CC(=O)N(C)C)c3)nc3ccccc23)CC1 [Example 366, N-(1-(2-(1-(2-(dimethylamino)-2-oxoethyl)-1H-pyrazol-4-yl)quinolin-4-yl)cyclopropyl)-2-methyl-4-((pyridin-2-ylmethoxy)methyl)benzamide]
read-out: IC50
  IC50: < 0.001 µM

## Cc1cc(COCc2ncsc2CO)ccc1C(=O)NC1(c2cc(-c3cnn(C)c3)nc3ccccc23)CC1 [Example 330, 4-(((5-(hydroxymethyl)thiazol-4-yl)methoxy)methyl)-2-methyl-N-(1-(2-(1-methyl-1H-pyrazol-4-yl)quinolin-4-yl)cyclopropyl)benzamide]
read-out: IC50
  IC50: < 0.001 µM

## Cc1ccccc1C(=O)NC(C)c1cc(N2CCC(S(=O)(=O)N(C)C)CC2)nc2ccccc12 (stereo not drawn) [Example 151, N-(1-{2-[4-(dimethylsulfamoyl)piperidin-1-yl]quinolin-4-yl}ethyl)-2-methylbenzamide]
read-out: IC50
  IC50: 1.46 µM

## COc1cc(-c2cc(C(C)NC(=O)c3ccccc3C)c3ccccc3n2)ccn1 (stereo not drawn) [Example 109]
read-out: IC50
  IC50: 0.28 µM

## Cc1ccc(NC(=O)[C@H]2CCCCN2)cc1C(=O)N[C@H](C)c1cc(N)nc2ccccc12 (single isomer, unassigned) [Example 27, (R)—N-(3-(((R*)-1-(2-aminoquinolin-4-yl)ethyl)carbamoyl)-4-methylphenyl)piperidine-2-carboxamide]
read-out: IC50
  IC50: 0.057 µM

## Cc1ccc(NC(=O)[C@H]2CCCCN2)cc1C(=O)N[C@H](C)c1cc(-c2cnn(C)c2)nc2ccccc12 [Example 14, (R)-N-(4-methyl-3-(((R)-1-(2-(1-methyl-1H-pyrazol-4-yl)quinolin-4-yl)ethyl)carbamoyl)phenyl)piperidine-2-carboxamide]
read-out: IC50
  IC50: 0.019 µM

## Cc1ccc2c(C3(NC(=O)c4ccc(COCc5cocn5)cc4C)CC3)cc(-c3cnn(C)c3)cc2n1 [Example 348, 2-methyl-N-(1-(2-methyl-7-(1-methyl-1H-pyrazol-4-yl)quinolin-5-yl)cyclopropyl)-4-((oxazol-4-ylmethoxy)methyl)benzamide]
read-out: IC50
  IC50: < 0.001 µM

## Cc1cc(C2(NC(=O)c3cscn3)CC2)ccc1C(=O)N[C@H](C)c1cc(-c2cnn(C)c2)nc2ccccc12 [Example 212, (R)-N-(1-(3-methyl-4-((1-(2-(1-methyl-1H-pyrazol-4-yl)quinolin-4-yl)ethyl)carbamoyl)phenyl)cyclopropyl)thiazole-4-carboxamide]
read-out: IC50
  IC50: 0.058 µM

## COC[C@H](OCc1cocn1)c1ccc(C(=O)NC2(c3cc(-c4cnn(C)c4)nc4ccccc34)CC2)c(C)c1 (single isomer, unassigned) [Example 338]
read-out: IC50
  IC50: 0.003 µM

## Cc1cc(CC(=O)Nc2cscn2)ccc1C(=O)N[C@H](C)c1cc(-c2cnn(C)c2)nc2ccccc12 [Example 236, (R)-2-methyl-N-(1-(2-(1-methyl-1H-pyrazol-4-yl)quinolin-4-yl)ethyl)-4-(2-oxo-2-(thiazol-4-ylamino)ethyl)benzamide]
read-out: IC50
  IC50: 0.003 µM

## Cc1ccc(N2CCN(C)CC2=O)cc1C(=O)N[C@H](C)c1cc(-c2cnn(C)c2)nc2ccccc12 [Example 249, (R)-2-methyl-N-(1-(2-(1-methyl-1H-pyrazol-4-yl)quinolin-4-yl)ethyl)-5-(4-methyl-2-oxopiperazin-1-yl)benzamide]
read-out: IC50
  IC50: 0.733 µM

## Cc1cc(COCc2cscn2)ccc1C(=O)NC1(c2cc(-c3cnn(C(C)(C)C(=O)N(C)C)c3)nc3ccccc23)CC1 [Example 363]
read-out: IC50
  IC50: < 0.001 µM

## CNC(=O)/C=C/C(=O)NNC(=O)CCc1ccccc1C(=O)N[C@H](C)c1cc(-c2cnn(C)c2)nc2ccccc12 [Example 223, (R,E)-N-(1-(2-(1-methyl-1H-pyrazol-4-yl)quinolin-4-yl)ethyl)-2-(3-(2-(4-(methylamino)-4-oxobut-2-enoyl)hydrazineyl)-3-oxopropyl)benzamide]
read-out: IC50
  IC50: 0.058 µM

## CCOC(=O)[C@H]1O[C@@H]1C(=O)NNC(=O)CCc1ccccc1C(=O)N[C@H](C)c1cc(-c2cnn(C)c2)nc2ccccc12 [Example 227, ethyl (2S,3S)-3-(2-(3-(2-(((R)-1-(2-(1-methyl-1H-pyrazol-4-yl)quinolin-4-yl)ethyl)carbamoyl)phenyl)propanoyl)hydrazine-1-carbonyl)oxirane-2-carboxylate]
read-out: IC50
  IC50: 0.002 µM

## Cc1cc(C(=O)NCc2ncsc2C)ccc1C(=O)N[C@H](C)c1cc(-c2cnn(C)c2)nc2ccccc12 [Example 203]
read-out: IC50
  IC50: 0.002 µM

## Cc1ccccc1C(=O)N[C@H](C)c1cc(-c2ccnn2C)nc2ccccc12 [Example 50, (R)-2-methyl-N-(1-(2-(1-methyl-1H-pyrazol-5-yl)quinolin-4-yl)ethyl)benzamide]
read-out: IC50
  IC50: 0.489 µM

## Cc1ccc(NC(=O)[C@H]2CCCCN2)cc1C(=O)N[C@H](C)c1cc(-c2cnn(C)c2)cc2ccccc12 (single isomer, unassigned) [Example 66]
read-out: IC50
  IC50: 0.008 µM

## Cc1ccc(NC(=O)[C@H]2CCCCN2)cc1C(=O)N[C@H](C)c1cc(-c2ccn[nH]2)cc2ccccc12 (single isomer, unassigned) [Example 69]
read-out: IC50
  IC50: 0.908 µM

## COC[C@@H](OCc1cocn1)c1ccc(C(=O)NC2(c3cc(-c4cc(C(=O)N(C)C)n[nH]4)cc4ncccc34)CC2)c(C)c1 (single isomer, unassigned) [Example 360]
read-out: IC50
  IC50: 0.001 µM

## Cc1ccccc1C(=O)NC(C)c1cc(-c2cnn(C)n2)nc2ccccc12 (stereo not drawn) [Example 135, 2-methyl-N-{1-[2-(2-methyl-2H-1,2,3-triazol-4-yl)quinolin-4-yl]ethyl}benzamide]
read-out: IC50
  IC50: 0.855 µM
